Measured values taken from patent US6410585B1, “Inhibitors of protein tyrosine phosphatase” (priority 1997, dated 2002).
Where “and” joins values, the source holds several entries; their conditions need not be identical. Identical values can stand only once. Like-named read-outs stand apart in the source and are kept apart here.

Experiments:
human PTP1B = molecular target: T1, human PTP1B (Homo sapiens, UniProt P18031); assay: PTP1B assay, pNPP hydrolysis, assayed exactly as for PTP1; assay type: biochemical; settings: for PTP1B Inhib PTP1B. % Inhib: Table 2; for inhibition at 1 µM / inhibition at 10 µM / inhibition at 100 µM: Table 2, read-out: PTP1B Inhib PTP1B. % Inhib
T1 construct: human PTP1B (amino acid residues 1-321); made in house; host or cells: E. coli BL21(DE3)
T1 sequence (P18031 1-321): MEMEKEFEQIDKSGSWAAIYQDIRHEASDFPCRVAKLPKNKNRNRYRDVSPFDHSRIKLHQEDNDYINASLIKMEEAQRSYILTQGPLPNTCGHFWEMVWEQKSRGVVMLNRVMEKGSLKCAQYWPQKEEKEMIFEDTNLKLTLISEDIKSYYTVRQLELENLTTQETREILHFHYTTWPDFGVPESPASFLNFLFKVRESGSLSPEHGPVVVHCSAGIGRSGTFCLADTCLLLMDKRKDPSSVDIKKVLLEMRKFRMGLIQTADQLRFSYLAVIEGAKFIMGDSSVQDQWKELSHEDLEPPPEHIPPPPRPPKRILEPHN
From the text: The equivalent construct of human PTP1B (amino acid residues 1-321) (cloned from a human placental library), without the GST tag and thrombin cleavage site, was inserted into a pMB replicon and transformed into E. coli BL21(DE3), a strain containing a chromosomal copy of the gene for T7 RNA polymerase under control of a lacUV5 promoter. Expression of PTP1B was induced with isopropyl thiogalactose and the soluble protein was purified by ion exchange, hydrophobic interaction and gel exclusion chromatography for use in the assay to identify PTP inhibitors.
PTP1 activity is measured using either p-nitrophenol phosphate (pNPP) or a triphosphopeptide (that matches residues 1142 through 1153 of the β-subunit and the insulin receptor) as substrate in a 96-well microtiter plate format. An assay pH of 7.2 is used for standard assays (measured 405=9800 at pH 7.2).
Human PTP1B, which is highly homologous to rat PTP1, was assayed exactly as described above for PTP1.
Standard assays are conducted at room temperature in a total volume of 0.2 ml that contains Hepes buffer (50 mM, pH 7.2), NaCl (50 mM), EDTA (1 mM), DTT (1 mM), bovine serum albumin (1 mg/ml), pNPP (1 mM) and PTP1 (35 ng/ml). Compounds (2 μl of 10 mM solutions) are pipetted into wells of microtiter plates followed by 198 μl of premixed reaction mix (with PTP1 and pNPP added immediately before use). The rate of change in A405 is recorded for 60 min. Two wells on each plate contain DMSO controls and two wells contain sodium orthovanadate (1 mM) which inhibits PTP1-catalyzed hydrolysis of pNPP completely. Data are expressed as percent inhibition relative to the average of the DMSO controls measured on the same microtiter plate.

rat PTP1 = molecular target: T2, rat PTP1 (Rattus norvegicus, UniProt P20417); assay: PTP1 assay, pNPP hydrolysis (rate of change in A405); assay type: biochemical; settings: for inhibition at 1 µM: Conc 1 uM; for inhibition at 1 µM / inhibition at 10 µM / inhibition at 100 µM: pNPP hydrolysis; for inhibition at 10 µM: Conc 10 uM; for inhibition at 100 µM: Conc 100 uM
T2 construct: a C-terminal truncation of rat PTP1 (amino acid residues 1-322); GST (N, cleaved yes); made in house; host or cells: E. coli strain TG-1 (pGEX-2T)
T2 sequence (P20417 1-322): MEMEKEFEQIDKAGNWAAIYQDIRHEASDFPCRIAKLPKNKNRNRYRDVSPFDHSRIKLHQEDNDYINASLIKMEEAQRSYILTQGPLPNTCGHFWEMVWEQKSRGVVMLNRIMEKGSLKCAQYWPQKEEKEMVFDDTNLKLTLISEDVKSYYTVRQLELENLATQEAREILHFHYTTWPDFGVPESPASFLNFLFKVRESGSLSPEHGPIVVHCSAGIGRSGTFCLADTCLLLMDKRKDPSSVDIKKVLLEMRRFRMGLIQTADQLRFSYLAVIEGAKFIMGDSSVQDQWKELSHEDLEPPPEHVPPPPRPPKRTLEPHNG
Method in brief: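 Thrombin-cleaved rat PTP1 residues 1-322 (35 ng/ml) with 1 mM pNPP in 50 mM Hepes pH 7.2, NaCl, EDTA, DTT, BSA at room temperature. A405 rate followed 60 min. Compounds added as 10 mM solutions; percent inhibition relative to plate DMSO controls, 1 mM orthovanadate as full-inhibition control.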

[1] = Table 1, read-out: PTP1 Inhib % Inhib
[2] = Table 2, read-out: PTP1 Inhib PTP1N. % Inhib

| SMILES | inhibition at 1 µM (human PTP1B; Conc 1 uM) | inhibition at 10 µM (human PTP1B; Conc 10 uM) | inhibition at 100 µM (human PTP1B; Conc 100 uM) | further results |
| --- | --- | --- | --- | --- |
| CCCCCNC(=O)C(Cc1ccc(OC(COO)COO)cc1)NC(=O)N(Cc1ccccc1)Cc1ccccc1 (centres unmarked) | 18% | 65% | 95% | PTP1B Inhib PTP1B. % Inhib (human PTP1B; Conc 1 uM): 14%; PTP1B Inhib PTP1B. % Inhib (human PTP1B; Conc 10 uM): 59%; PTP1B Inhib PTP1B. % Inhib (human PTP1B; Conc 100 uM): 93% |
| CCCCCNC(=O)C(Cc1ccc(OC(COO)COO)cc1)NC(=O)C(CSCc1ccccc1)NC(=O)OC(C)(C)C (centres unmarked) | 2% | 14% | 75% | PTP1B Inhib PTP1B. % Inhib (human PTP1B; Conc 1 uM): 3%; PTP1B Inhib PTP1B. % Inhib (human PTP1B; Conc 10 uM): 16%; PTP1B Inhib PTP1B. % Inhib (human PTP1B; Conc 100 uM): 83% |
| CCCCCNC(=O)C(Cc1ccc(OC(COO)COO)cc1)NC(=O)C(Cc1ccc2ccccc2c1)NC(=O)OC(C)(C)C (centres unmarked) |  | 29% | 93% | PTP1B Inhib PTP1B. % Inhib (human PTP1B; Conc 1 uM): 1% and 3%; PTP1B Inhib PTP1B. % Inhib (human PTP1B; Conc 100 uM): 90% |
| CCCCCNC(=O)C(Cc1ccc(OC(COO)COO)cc1)NC(=O)C(CCc1ccccc1)NC(=O)OC(C)(C)C (centres unmarked) | 2% |  | 58% | PTP1B Inhib PTP1B. % Inhib (human PTP1B; Conc 10 uM): 7% and 17%; PTP1B Inhib PTP1B. % Inhib (human PTP1B; Conc 100 uM): 77% |
| CCCCCNC(=O)C(Cc1ccc(OCCOO)c(COO)c1)NC(=O)C(Cc1ccccc1)NC(=O)CCC(=O)O (centres unmarked) | 64% | 93% | 98% | PTP1B Inhib PTP1B. % Inhib (human PTP1B; Conc 1 uM): 66%; PTP1B Inhib PTP1B. % Inhib (human PTP1B; Conc 10 uM): 92% |
| CCCCCNC(=O)C(Cc1ccc(OC(COO)COO)cc1)NC(=O)C(Cc1ccccc1)NS(=O)OC (centres unmarked) | 9% | 40% | 86% |  |
| CCCCCNC(=O)C(Cc1ccc(OC(COO)COO)cc1)NC(=O)C(Cc1ccccc1)NC(=O)CCN(CC)CC (centres unmarked) | 12% | 54% | 92% |  |
| CCCCCNC(=O)C(Cc1ccc(OC(COO)COO)cc1)NC(=O)C(Cc1ccccc1)NC(=O)CCNC(=O)OC(C)(C)C (centres unmarked) | 14% | 62% | 93% |  |
| CCCCCNC(=O)C(Cc1ccc(OCCOO)c(COO)c1)NC(=O)C(Cc1ccc(O)cc1)NC(=O)OC(C)(C)C (centres unmarked) | 32% | 81% | 97% | PTP1B Inhib PTP1B. % Inhib (human PTP1B; Conc 1 uM): 28%; PTP1B Inhib PTP1B. % Inhib (human PTP1B; Conc 10 uM): 78%; PTP1B Inhib PTP1B. % Inhib (human PTP1B; Conc 100 uM): 96% |
| CCCCCNC(=O)[C@H](Cc1ccc(OCC(=O)O)c(C(=O)O)c1)NC(=O)C(Cc1ccccc1)NC(=O)CSc1nnc[nH]1 (some centres unmarked) | 36% | 82% | 96% |  |
| CCCCCNC(=O)[C@H](Cc1ccc(OCC(=O)O)c(C(=O)O)c1)NC(=O)C(Cc1ccccc1)NC(=O)Cn1nnnc1S (some centres unmarked) | 57% | 91% | 98% |  |
| CCCCCNC(=O)[C@H](Cc1ccc(OCC(=O)O)c(C(=O)O)c1)NC(=O)C(Cc1ccccc1)NC(=O)CSc1cnn[nH]1 (some centres unmarked) | 49% | 88% | 98% |  |
| CCCCCNC(=O)[C@H](Cc1ccc(OCC(=O)OC)c(C(=O)O)c1)NC(=O)[C@H](Cc1ccccc1)NC(=O)OC(C)(C)C | 3% | 5% | 25% |  |
| CCCCCNC(=O)C(Cc1ccc(OC(COO)C(=O)O)cc1)C(=O)NCCC(=O)O (centres unmarked) | 9% | 15% | 48% |  |
| CCCCCNC(=O)C(Cc1ccc(OC(COO)COO)cc1)NC(=O)C(Cc1ccccc1)NS(=O)OCc1ccccc1 (centres unmarked) | 4% | 16% | 62% |  |
| CCCCCNC(=O)C(Cc1ccc(OCCOO)c(COO)c1)NC(=O)C(Cc1ccccc1)NC(=O)Cc1c[nH]c2ccccc12 (centres unmarked) | 47% | 88% | 98% |  |

| SMILES | inhibition at 1 µM (human PTP1B; Conc 1 uM) | inhibition at 10 µM (human PTP1B; Conc 10 uM) | inhibition at 100 µM (human PTP1B; Conc 100 uM) | further results |
| --- | --- | --- | --- | --- |
| CCCCCNC(=O)C(Cc1ccc(OCCOO)c(COO)c1)NC(=O)C(Cc1ccccc1)NC(=O)Cc1ccccc1 (centres unmarked) | 45% | 87% | 98% |  |
| CCCCCNC(=O)C(Cc1ccc(OCCOO)c(COO)c1)NC(=O)C(Cc1ccccc1)NC(=O)CCCc1ccccc1 (centres unmarked) | 19% | 70% | 96% |  |
| CCCCCNC(=O)C(Cc1ccc(OCCOO)c(COO)c1)NC(=O)C(Cc1ccccc1)NC(C)=O (centres unmarked) | 28% | 77% | 96% |  |
| CCCCCNC(=O)C(Cc1ccc(OCCOO)c(COO)c1)NC(=O)C(Cc1ccccc1)NC(=O)CCOC (centres unmarked) | 37% | 83% | 97% |  |
| CCCCCNC(=O)[C@H](Cc1ccc(N(CC(=O)O)CC(=O)O)cc1)NC(=O)[C@H](Cc1ccccc1)NC(=O)OC(C)(C)C | 3% | 6% | 29% |  |
| CCCCCNC(=O)C(Cc1ccc(OC(COO)COO)cc1)NC(=O)C(Cc1ccccc1)NC(=O)CCOC (centres unmarked) | 19% | 65% | 94% |  |
| CCCCCNC(=O)[C@H](Cc1ccc(OCC(=O)O)c(C(=O)NO)c1)NC(=O)[C@H](Cc1ccccc1)NC(=O)OC(C)(C)C | 5% | 13% | 54% |  |
| CCCCCNC(=O)C(Cc1ccc(OCCOO)c(COO)c1)NC(=O)C(Cc1ccccc1)NC(=O)CCCO (centres unmarked) | 23% | 78% | 96% |  |
| CCCCCNC(=O)C(Cc1ccc(OCCOO)c(COO)c1)NC(=O)C(Cc1ccccc1)NC(=O)CCNC(=O)OC(C)(C)C (centres unmarked) | 19% | 75% | 96% |  |
| CCCCCNC(=O)C(Cc1ccc(OCCOO)c(COO)c1)NC(=O)C(Cc1ccccc1)NC(=O)CCNS(C)(=O)=O (centres unmarked) | 15% | 73% | 95% |  |
| CCCCCNC(=O)C(Cc1ccc(OC(C(=O)O)C(=O)O)cc1)NC(=O)[C@H](Cc1c[nH]c2ccccc12)NC(=O)OC(C)(C)C (some centres unmarked) | 10% | 44% | 89% |  |
| CCCCCNC(=O)[C@H](Cc1ccc(OCC(=O)NO)c(C(=O)O)c1)NC(=O)[C@H](Cc1ccccc1)NC(=O)OC(C)(C)C | 6% | 8% | 30% |  |
| CCCCCNC(=O)C(Cc1ccc(OCCOO)c(COO)c1)NC(=O)C(Cc1ccccc1)NC(=O)Cc1cccc(O)c1 (centres unmarked) | 43% | 86% | 98% |  |
| CCCCCNC(=O)C(Cc1ccc(OC(COO)COO)cc1)NC(=O)C(Cc1ccc(C(=O)c2ccccc2)cc1)NC(=O)CCC(=O)O (centres unmarked) [drawing 133] |  |  |  | inhibition at 1 µM (rat PTP1; [1]): 42%; inhibition at 10 µM (rat PTP1; [1]): 87%; inhibition at 100 µM (rat PTP1; [1]): 98% |
| CCCCCNC(=O)C(Cc1ccc(OC(COO)COO)cc1)NC(=O)C(Cc1ccc(C(=O)c2ccccc2)cc1)NC(=O)CCC(=O)O (centres unmarked) [drawing 139] |  |  |  | inhibition at 1 µM (rat PTP1; [2]): 4%; inhibition at 10 µM (rat PTP1; [2]): 13%; inhibition at 100 µM (rat PTP1; [2]): 54% |
| [Na+].[Na+].[Na+].[O]=[V]([O-])([O-])[O-] [sodium orthovanadate, reference compound] |  |  |  | inhibits PTP1-catalyzed hydrolysis of pNPP (rat PTP1; 1 mM, control wells on each plate): completely |
